According to patent publication US6436948B1, “Method for the treatment of psoriasis and genital warts” (priority 1995, dated 2002):

Key:
NCr nude mice = format: in vivo; conditions: mouse, in vivo, 25 mg/kg
Method: (§1) Drugs were given at the indicated doses on days 0 through 4 and tumor sizes were measured every several days. The tumor growth curves were generated as described in Bell, et al., Cancer(phila.) 36:2437-2440 (1975), and are illustrated in FIGS. 5(a) and 5(b).
Toxicity was evaluated by changes in body weight.

HepG2 tumors = assay: HepG2 xenograft in NCr nude mice; format: in vivo, human; conditions: 25 mg/kg twice a day on days 0 through 4, NCr nude mice
Method: (§2) FIG. 5 is a graph of the inhibition of human tumor growth by […]. Three to six week old NCr nude mice were inoculated subcutaneously in each flank with 2×10^6 HepG2 or DU-145 cells. Treatment was started when the tumors were in an advanced stage of growth. Drugs were administered twice a day on days 0 through 4 and tumor sizes were measured on the indicated days. […] Each data point represents the means±SD of 10 tumors in graph A and six tumors in graph B.
(§3) Three to six-week-old NCr nude mice (Taconic Immunodeficient Mice and Rats) were inoculated s.c. in each flank with 2×10^6HepG2 or DU-145 cells and tumors were allowed to grow. Treatment was started when the tumors were 100-250mg as determined by caliper measurement and calculated according to the formula:
(§4) Tumor Weight(mg)=length(mm)×width(mm^2)÷2
as §1

[1] = test system: DU-145 prostate carcinoma line; assay: In vitro cytotoxicity, methylene blue assay / cell count: DU-145; format: cell-based; conditions: Homo sapiens, read-out: ID50 (the source's name)
HepG2 cells = assay: In vitro cytotoxicity, methylene blue assay / cell count: HepG2; format: cell-based; conditions: Homo sapiens, three generations, mean ± standard deviation of five experiments, read-out: ID50 (the source's name)
[2] = test system: PC-3 prostate carcinoma line; assay: In vitro cytotoxicity, methylene blue assay / cell count: PC-3; format: cell-based; conditions: three generations, mean ± standard deviation of five experiments, read-out: ID50 (the source's name)
[3] = test system: KB nasopharyngeal carcinoma cell line; assay: In vitro cytotoxicity, methylene blue assay / cell count: KB; format: cell-based; conditions: three generations, mean ± standard deviation of five experiments, read-out: ID50 (the source's name)
CEM cells = assay: In vitro cytotoxicity, methylene blue assay / cell count: CEM; format: cell-based; conditions: Homo sapiens, CCRF-CEM, three generations, mean ± standard deviation of five experiments, read-out: ID50 (the source's name)
DU-145 tumors = assay: DU-145 xenograft in NCr nude mice; format: in vivo, human; conditions: 25 mg/kg twice a day on days 0 through 4, NCr nude mice
Method: as §2, §3, §4, §1

## Nc1ccn([C@@H]2O[C@H](CO)[C@@H](O)[C@@H]2O)c(=O)n1 [AraC, Cytosine arabinoside]
NCr nude mice
  Toxicity as indicated by weight loss of the animals: equally toxic
HepG2 tumors
  Effect on HepG2 tumors in words: ineffective
HepG2 tumors; listed as arac
  Effect on HepG2 tumors in words: inactive
[1]
  IC50: 170 ± 35 nM
HepG2 cells
  IC50: 125 ± 13 nM
[2]
  IC50: 200 ± 78 nM
[3]
  IC50: 152 ± 10 nM
CEM cells
  IC50: 30 ± 10 nM
DU-145 tumors
  Effect on DU-145 tumors in words: ineffective
